Tests used:
G1 APOL1 = biological target: T1, G1 APOL1 (Homo sapiens, UniProt O14791, I384M/S342G); experiment: Acute APOL1 Thallium Assay with Inducible Stable Clones of HEK 293 Cells; type: cell-based; conditions: HEK 293 inducible stable clones, G1 APOL1; read-out: Thallium Assay (IC50)
T1 construct: expressed in transfected cells
T1 sequence (O14791 28-398 S342G/I384M): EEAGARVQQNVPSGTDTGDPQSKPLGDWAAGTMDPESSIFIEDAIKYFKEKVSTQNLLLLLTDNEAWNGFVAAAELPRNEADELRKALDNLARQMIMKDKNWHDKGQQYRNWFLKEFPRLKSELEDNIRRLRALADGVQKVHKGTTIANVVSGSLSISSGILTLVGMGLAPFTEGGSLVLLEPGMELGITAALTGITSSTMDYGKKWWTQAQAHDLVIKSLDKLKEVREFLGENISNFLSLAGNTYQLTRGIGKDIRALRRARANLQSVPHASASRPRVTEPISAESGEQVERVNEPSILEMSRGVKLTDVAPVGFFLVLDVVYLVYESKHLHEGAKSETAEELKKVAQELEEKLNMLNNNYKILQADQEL
How it was run: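 HEK293 T-Rex cells with a stable tetracycline-inducible G1 APOL1 construct (clone DC3.25) were induced with tetracycline at plating, 26000 cells per well, then incubated at 37° C. They were loaded with an AM-ester thallium-sensitive dye and stimulated with Tl+. The fluorescence rise measured Tl+ influx through APOL1 pores.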

APOL1 G1 Protein = biological target: T2, APOL1 G1 Protein (Homo sapiens, UniProt O14791, I384M/S342G); experiment: Trypanosoma brucei brucei Lysis Assay Using APOL1 Recombinant Protein (AlamarBlue viability); type: cell-based; conditions: read-out: Trypanosomal Assay (IC50)
T2 sequence (O14791 28-398 S342G/I384M): T1 sequence (O14791 28-398 S342G/I384M)
How it was run: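 Lister 427 bloodstream-form trypanosomes seeded at 120,000 per well in phenol-red-free, serum-free medium and lysed with recombinant APOL1 variant protein. Viability read by AlamarBlue (resazurin) fluorescence. Percent viability relative to untreated wells, interpolated from a standard curve of seeded parasites.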

IC50 (G1 APOL1) [µM] | Structure (SMILES) | IC50 (APOL1 G1 Protein) [µM]
> 1 | O=C(CCc1c(-c2ccc(F)cc2)[nH]c2c(F)cc(F)cc12)N[C@H]1COC[C@@H]1O [Compound 181] | > 1
> 1 | CC(CO)N(C)C(=O)CCc1c(-c2ccc(F)cc2)[nH]c2ccc(F)cc12 (stereo not drawn) [Compound 51] | > 1
> 1 | NC(=O)CNC(=O)CCc1c(-c2ccc(F)cc2)[nH]c2c(F)cc(F)cc12 [Compound 111] | > 1
> 1 | C[C@H](O)CNC(=O)CCc1c(-c2ccc(F)cc2)[nH]c2ccc(F)cc12 [Compound 78] | > 1
> 1 | CN(CC(F)(F)F)C(=O)CCc1c(-c2ccc(F)cc2)[nH]c2c(F)cc(F)cc12 [Compound 166] | > 1
> 1 | CC[C@@H](CO)NC(=O)CCc1c(-c2ccc(F)cc2)[nH]c2ccc(F)cc12 [Compound 80] | > 1
0.25 to 1 | C[C@@H](CO)NC(=O)CCc1c(-c2ccc(F)cc2)[nH]c2c(F)cc(F)cc12 [Compound 109] | 0.25 to 1
> 1 | Cc1nc(NC(=O)CCc2c(-c3ccc(F)cc3)[nH]c3c(F)cc(F)cc23)no1 [Compound 92, 3-[5,7-difluoro-2-(4-fluorophenyl)-1H-indol-3-yl]-N-(5-methyl-1,2,4-oxadiazol-3-yl)propanamide] | > 1
> 1 | CC(C)C[C@H](CO)NC(=O)CCc1c(-c2ccc(F)cc2)[nH]c2c(F)cc(F)cc12 [Compound 192] | > 1
> 1 | O=C(CCc1c(-c2ccc(F)cc2)[nH]c2ccc(F)cc12)N[C@H]1C[C@@H](O)C1 [Compound 87] | > 1
> 1 | CNC(=O)CCc1c(-c2ccc(F)cc2)[nH]c2ccc(F)cc12 [Compound 73] | > 1
> 1 | O=C(CCc1c(-c2ccc(F)cc2)[nH]c2c(F)cc(F)cc12)NC(CO)c1ccccn1 (stereo not drawn) [Compound 185] | > 1
< 0.25 | CC(O)C(=O)NCCCc1c(-c2ccc(F)cc2)[nH]c2ccc(F)cc12 (racemic) [Compound 507] | 0.25 to 1
> 1 | O=C(CCc1c(-c2ccc(F)cc2)[nH]c2c(F)cc(F)cc12)Nc1nnc(C(F)(F)F)o1 [Compound 148] | > 1
> 1 | Cc1cc(NC(=O)CCc2c(-c3ccc(F)cc3)[nH]c3ccc(F)cc23)no1 [Compound 526] | > 1
> 1 | CN1CC(NC(=O)CCc2c(-c3ccc(F)cc3)[nH]c3ccc(F)cc23)C(=O)N1 (stereo not drawn) [Compound 41] | > 1
> 1 | Cn1ccc(NC(=O)CCc2c(-c3ccc(F)cc3)[nH]c3c(F)cc(F)cc23)n1 [Compound 163] | > 1
< 0.25 | O=C(CCc1c(-c2ccc(F)cc2)[nH]c2c(F)cc(F)cc12)NC1(CO)CC1 [Compound 131] | < 0.25
0.25 to 1 | CC(=O)OCC(CO)NC(=O)CCc1c(-c2ccc(F)cc2)[nH]c2c(F)cc(F)cc12 (stereo not drawn) [Compound 141] | 0.25 to 1
0.25 to 1 | O=C(CCc1c(-c2ccc(F)cc2)[nH]c2c(F)cc(F)cc12)NC1(CO)CC(F)(F)C1 [Compound 122] | > 1
> 1 | O=C(CCc1c(-c2ccc(F)cc2)[nH]c2c(F)cc(F)cc12)NC1(C(F)(F)F)CCC1 [Compound 161] | > 1
< 0.25 | OCCCc1c(-c2ccc(F)cc2)[nH]c2c(F)cc(F)cc12 [Compound 517, 3-[5,7-difluoro-2-(4-fluorophenyl)-1H-indol-3-yl]propan-1-ol] | < 0.25
> 1 | O=C(CCc1c(-c2ccc(F)cc2)[nH]c2c(F)cc(F)cc12)NCc1ccc(Cl)s1 [Compound 130] | > 1
< 0.25 | O=C(CCc1c(-c2ccc(F)cc2)[nH]c2c(F)cc(F)cc12)N[C@H]1CCOC1=O [Compound 187] | < 0.25
0.25 to 1 | CC(C)(CO)NC(=O)CCc1c(-c2ccc(F)cc2)[nH]c2c(F)cc(F)cc12 [Compound 103] | 0.25 to 1
> 1 | O=C(CCc1c(-c2ccc(F)cc2)[nH]c2c(F)cc(F)cc12)N[C@H]1CC[C@H](O)C1 [Compound 135] | > 1
0.25 to 1 | O=C(CCc1c(-c2ccc(F)cc2)[nH]c2c(F)cc(F)cc12)NC1(CO)COC1 [Compound 126] | 0.25 to 1

IC50 (G1 APOL1) [µM] | Structure (SMILES) | IC50 (APOL1 G1 Protein) [µM]
> 1 | CN(CCO)C(=O)CCc1c(-c2ccc(F)cc2)[nH]c2c(F)cc(F)cc12 [Compound 143] | > 1
0.25 to 1 | O=C(CCc1c(-c2ccc(F)cc2)[nH]c2c(F)ccc(F)c12)N[C@@H](CO)C(F)(F)F [Compound 232, 3-[4,7-difluoro-2-(4-fluorophenyl)-1H-indol-3-yl]-N-[(1S)-2,2,2-trifluoro-1-(hydroxymethyl)ethyl]propanamide] | 0.25 to 1
> 1 | O=C(CCc1c(-c2ccc(F)cc2)[nH]c2c(F)cc(F)cc12)NCC1(CO)COC1 [Compound 140] | > 1
> 1 | O=C(CCc1c(-c2ccc(F)cc2)[nH]c2c(F)cc(F)cc12)Nc1ccncc1 [Compound 119] | > 1
> 1 | O=C(CCc1c(-c2ccc(F)cc2)[nH]c2c(F)cc(F)cc12)NC1CCOC1 (stereo not drawn) [Compound 169] | > 1
0.25 to 1 | O=C(CCc1c(-c2ccc(F)cc2)[nH]c2c(F)cc(Br)cc12)N[C@@H](CO)C(F)(F)F [Compound 229] | < 0.25
> 1 | CN(CCNC(=O)OC(C)(C)C)C(=O)CCc1c(-c2ccc(F)cc2)[nH]c2ccc(F)cc12 [Compound 72] | > 1
0.25 to 1 | O=C(CCc1c(-c2ccc(F)cc2)[nH]c2ccc(F)cc12)NC(CO)CO [Compound 22] | 0.25 to 1
> 1 | NC1CCN(C(=O)CCc2c(-c3ccc(F)cc3)[nH]c3ccc(F)cc23)C1 (stereo not drawn) [Compound 49] | > 1
> 1 | Cc1cc(NC(=O)CCc2c(-c3ccc(F)cc3)[nH]c3c(F)cc(F)cc23)no1 [Compound 180] | > 1
> 1 | CN(CC(N)=O)C(=O)CCc1c(-c2ccc(F)cc2)[nH]c2c(F)cc(F)cc12 [Compound 150] | > 1
0.25 to 1 | NC(=O)[C@@H](CO)NC(=O)CCc1c(-c2ccc(F)cc2)[nH]c2c(F)cc(F)cc12 [Compound 98] | > 1
0.25 to 1 | CC(C)(NC(=O)CCc1c(-c2ccc(F)cc2)[nH]c2ccc(F)cc12)C(N)=O [Compound 17] | 0.25 to 1
> 1 | N[C@H]1C[C@H](NC(=O)CCc2c(-c3ccc(F)cc3)[nH]c3ccc(F)cc23)C1 [Compound 54] | > 1
> 1 | N[C@H]1C[C@@H](NC(=O)CCc2c(-c3ccc(F)cc3)[nH]c3ccc(F)cc23)C1 [Compound 10] | > 1
> 1 | O=C(CCc1c(-c2ccc(F)cc2)[nH]c2c(F)cc(F)cc12)NC1C(=O)Nc2ccc(F)cc21 (stereo not drawn) [Compound 139] | > 1
> 1 | C[C@@H](O)CNC(=O)CCc1c(-c2ccc(F)cc2)[nH]c2ccc(F)cc12 [Compound 79] | > 1
> 1 | O=C(CCc1c(-c2ccc(F)cc2)[nH]c2c(F)cc(F)cc12)N1CC[C@H]1CO [Compound 138] | > 1
0.25 to 1 | O=C(CCc1c(-c2ccc(F)cc2)[nH]c2ccc(F)cc12)NCC(F)(F)F [Compound 39] | > 1
> 1 | CC1(N)CCN(C(=O)CCc2c(-c3ccc(F)cc3)[nH]c3ccc(F)cc23)C1 (racemic) [Compound 67] | > 1
0.25 to 1 | Nc1ccnn1C(=O)CCc1c(-c2ccc(F)cc2)[nH]c2ccc(F)cc12 [Compound 6] | 0.25 to 1
> 1 | CC1CC(NC(=O)CCc2c(-c3ccc(F)cc3)[nH]c3c(F)cc(F)cc23)C(=O)O1 (mixture of isomers) [Compound 189] | > 1
0.25 to 1 | CC[C@H](CO)NC(=O)CCc1c(-c2ccc(F)cc2)[nH]c2ccc(F)cc12 [Compound 89] | < 0.25
> 1 | CC(C#N)(CO)NC(=O)CCc1c(-c2ccc(F)cc2)[nH]c2ccc(F)cc12 (racemic) [Compound 33] | > 1
< 0.25 | N#Cc1ccc(-c2[nH]c3c(F)cc(F)cc3c2CCC(=O)N[C@@H](CO)C(F)(F)F)cc1 [Compound 234, 3-[2-(4-cyanophenyl)-5,7-difluoro-1H-indol-3-yl]-N-[(1S)-2,2,2-trifluoro-1-(hydroxymethyl)ethyl]propanamide] | < 0.25
> 1 | O=C(CCc1c(-c2ccc(F)cc2)[nH]c2c(F)cc(F)cc12)NC[C@H](O)C(F)(F)F [Compound 114] | > 1
0.25 to 1 | O=C(CCc1c(-c2ccc(F)cc2)[nH]c2ccc(F)cc12)NC1CC(F)(F)C1 [Compound 47] | > 1
